Patent US12630573B2, “High-affinity Cu(I) ligands and methods of use thereof” (GEORGIA TECH RESEARCH CORPORATION, priority 2019, dated 2026)

Key:
Format in all cases: binding
[1] = Molar ratio titration against BCA copper(I) complex; conditions: linear decrease in absorbance at 562 nm
Protocol: In a quartz cuvette with 1 cm path length, BCA (9.0 μL) was diluted from a 50 mM aqueous stock solution (dissolved by addition of KOH) into 3.0 mL of buffer (10 mM PIPES, 0.1 M KCl, pH 7.0, 25° C.). Furthermore, Cu(II)SO4 (5.0 μL) from a 30 mM stock solution) and sodium ascorbate (7.5 μL from a 60 mM stock solution) were added. After equilibration for 10 minutes, a UV-vis spectrum was recorded, and the solution was titrated in 1-10 μL aliquots with a 3 mM stock solution of phenPS in DMF or naphPS in DMSO. For phenPS, the endpoint occurred at 1.04 molar equivalents on the basis of the mass employed for stock solution preparation, consistent with incomplete removal of the solvent of crystallization as observed by ^1H NMR. An independent molar ratio titration against [Cu(I)MCL-2]PF6 confirmed the stock concentration as 2.88 mM rather than 3.0 mM, and the plotted Cu(I)/phenPS ratio is adjusted accordingly.

[2] = Spectrophotometric Cu(I) competition titration against BCS; conditions: pH 7.0, 10 mM PIPES, 0.1 M KCl, 25° C.
Protocol: An aqueous sodium bathocuproine disulfonate (BCS, Acros Organics) stock solution (60 mM) was prepared calibrated by competition titration against MCL-1 as previously described (Bagchi, P., et al., J. Am. Chem. Soc., 135(49) (2013)). BCS (1.50 mM), sodium ascorbate (150 μM) and CuSO4 (30 μM) were sequentially added via aqueous stock solutions to 3 mL of buffer (10 mM PIPES, 0.1 M KCl, pH 7.0) in a 1-cm path length cuvette equipped with magnetic stirring, and a UV-Vis absorption spectrum was recorded from 650-380 nm. PhenPS was added in 5 μM aliquots from a 2.88 mM stock solution in DMF and an absorption spectrum was acquired after a 2 min equilibration period following each aliquot. The titration was conducted in duplicate, and each dataset was analyzed by nonlinear least squares fitting over the spectral range from 650-400 nm using the Specfit software package from Spectrum Software Associates. The stability constant for naphPS was determined similarly except that the ligand was delivered from a 3.0 mM stock solution in DMSO and a 5-minute equilibration period was required to obtain a stable spectrum after each aliquot.
An aqueous sodium bathocuproine disulfonate (BCS, Acros Organics) stock solution (60 mM) was prepared and calibrated by competition titration against MCL-1 as previously described (Bagchi, P., et al., J. Am. Chem. Soc., 135(49) (2013)). […]

[3] = Molar ratio titration with [Cu(I)MCL-2]PF6; conditions: 10 mM PIPES, 0.1 M KCl, pH 7; fit 250-400 nm
Protocol: In a quartz cuvette with 1 cm path-length, a 50 μM aqueous solution of phenPS was prepared by diluting the ligand from a stock solution (3 mM in DMF) into 2.95 mL of aqueous buffer (10 mM PIPES, 0.1 M KCl, pH 7) under rapid stirring. After recording a UV-vis absorption spectrum from 240 to 500 nm, [Cu(I)MCL-2]PF6 (3 mM stock solution in water) was added in 5 μM aliquots up to 95 μM. The absorption spectrum was recorded after a 1 min mixing period following each aliquot. To derive an accurate reference spectrum of Cu(I)-MCL-2 complex, a separate titration was conducted using pure DMF in place of the phenPS stock solution. The exact concentration of the phenPS stock solution was calibrated against [Cu(I)MCL-2]PF6 by plotting the apparent fractional saturation of the ligand, calculated as f=(A−A0)/(Asat−A0) where A corresponds to the absorbance at 290 nm and the subscripts 0 and sat refer to the spectra at 0 and 50 μM Cu(I), versus nominal molar equivalents of Cu(I) for the first 10 data points (0-0.9 molar equivalents). After concentration correction and subtraction of the DMF background absorption, non-linear least-squares fitting of the titration dataset over the wavelength range 250-400 nm was performed using a fixed log β11 of 21.2 for Cu(I)-phenPS to yield a log β12=31.86±0.07 (log K2=10.66±0.07) for Cu(I)2phenPS.

SMILES	removal of Cu(I) from BCA complex [1]	dissociation constant Kd of Cu(I) complex [2]	log β12 for Cu(I)2phenPS [3]
CP(C)(=S)CP(CP(C)(C)=S)c1cccc2cccc(P(CP(C)(C)=S)CP(C)(C)=S)c12 [naphPS, 1,8-Bis(bis(dimethylphosphorothioylmethyl)phosphino)naphthalene]	quantitative removal of Cu(I)	–	–
CP(C)(=S)CP(CP(C)(C)=S)c1ccccc1P(CP(C)(C)=S)CP(C)(C)=S [phenPS, 1,2-Bis(bis(dimethylphosphorothioylmethyl)phosphino)benzene]	quantitative removal of Cu(I)	0.6 zM	31.86±0.07
